From US9006415B2, “Targeted delivery of nucleic acids” (Massachusetts Institute of Technology, priority 2010, dated 2015) come the findings set out here.

For assay [1], the system named is HeLa cells. Put plainly: Inhibition of endocytosis (uptake and GFP knockdown with small molecule inhibitors). The format is cell-based, human. The note with it: HeLa cells pre-incubated with inhibitor 1 h. The procedure: HeLa cells grown in 96-well plates at ˜70% confluence were incubated with small molecule inhibitors for 1 h at 37° C., followed by incubation with tetramethylrhodamine-labeled TP-LyP1 (3 μM) or TPNs containing both labeled peptide (3 μM) and GFP siRNA (100 nM) for an additional hour at 37° C. The cells were washed three times with cold PBS and were subsequently either imaged with a CCD camera mounted on a Nikon TE200 inverted epifluorescence microscope (for peptide-only), or trypsinized for flow cytometry analysis by the BD-LSR II system to assess GFP expression (for incubations with nanocomplexes).
To identify the mechanism by which tandem peptides enter cells, these experiments were repeated in the presence of a variety of endocytosis inhibitors [Veldhoen, S., Laufer, S. D., Trampe, A. & Restle, T. Cellular delivery of small interfering RNA by a non-covalently attached cell-penetrating peptide: quantitative analysis of uptake and biological effect. Nucleic Acids Res 34, 6561-6573, (2006)]. […] Thus, tandem peptides are taken up by cells mainly via macropinocytosis and lipid-raft.

For assay [2], the target named is T1, p32 receptor (Homo sapiens, UniProt Q07021).
T1 construct: incubated over Hela cells, which express p32 on the cell surface; endogenous in cells; host or cells: HeLa (stably expressing dGFP)
T1 sequence (Q07021 74-282): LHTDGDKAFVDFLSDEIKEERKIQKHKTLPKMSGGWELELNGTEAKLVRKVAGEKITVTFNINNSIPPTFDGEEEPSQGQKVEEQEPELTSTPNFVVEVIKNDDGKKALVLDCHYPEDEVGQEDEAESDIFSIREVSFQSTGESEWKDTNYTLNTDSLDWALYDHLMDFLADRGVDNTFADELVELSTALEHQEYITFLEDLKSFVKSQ
As to the kind of experiment: Competition of GFP silencing with free LyP-1 peptide. Conditions: nanocomplexes on HeLa cells. The format is cell-based.
Procedure: For the initial screen, HeLa cells stably expressing destabilized GFP were cultured in 96-well plates to ˜70-80% confluence. siRNA (0-100 nM) was incubated with 20-fold molar excess of tetramethylrhodamine-labelled tandem peptides in PBS for 10-15 min at room temperature, then incubated over cells in DMEM for 4 h at 37° C., after which the medium was replaced. The complexes were then added to HeLa cell cultures and incubated for 4 h at 37° C., after which the medium was replaced with 100 μL of fresh medium with 10% serum. […] For competition experiments with free LyP-1 peptide, cells were pre-incubated with unlabeled LyP-1 peptide or ARAL control peptide at specified concentrations for 1 h at 37° C. before treatment with peptide/siRNA complexes.

In assay [3] the test system is tumor parenchyma. As to the kind of experiment: Tumor penetration with iRGD in place of Lyp-1. The format is in vivo. Conditions: data not shown.

On to `OCC1OC(O)CC(O)C1O` (stereo not drawn) [Deoxyglucose], for which, in assay [1], the “GFP knockdown in presence of inhibitor” value is on record as “inhibited GFP knockdown”.
As to `CCCCCCCCCC(=O)NC(CN1CCOCC1)C(O)c1ccccc1` (stereo not drawn) [PDMP], in assay [1], the “GFP knockdown in presence of inhibitor” value was “significantly decreased” and the “cell binding of tandem peptide in presence of inhibitor” value (“cell binding … of inhibitor” below) is “significantly decreased”.
With `N=C(N)NC(=O)c1nc(Cl)c(N)nc1N` [amiloride], in assay [1], the “GFP knockdown in presence of inhibitor” value is listed as “significantly decreased” and the “cell binding … of inhibitor” value was “significantly decreased”.
With `OC[C@H]1O[C@@H]2O[C@H]3[C@H](O)[C@@H](O)[C@@H](O[C@H]4[C@H](O)[C@@H](O)[C@@H](O[C@H]5[C@H](O)[C@@H](O)[C@@H](O[C@H]6[C@H](O)[C@@H](O)[C@@H](O[C@H]7[C@H](O)[C@@H](O)[C@@H](O[C@H]8[C@H](O)[C@@H](O)[C@@H](O[C@H]1[C@H](O)[C@H]2O)O[C@@H]8CO)O[C@@H]7CO)O[C@@H]6CO)O[C@@H]5CO)O[C@@H]4CO)O[C@@H]3CO` [β-cyclodextrin], in assay [1], the “GFP knockdown in presence of inhibitor” value is given as “significantly decreased” and the “cell binding … of inhibitor” value was “significantly decreased”.
With ARALPSQRSR [control peptide], the “effect of control peptide on GFP silencing” value in assay [2] is reported as “no effect”.
Regarding CRGDKGPDC [iRGD], the tumor penetration result in assay [3] is given as “penetrate tumor parenchyma in a to time-dependent manner”.
